According to paper PMC3759162 (Cellular and molecular life sciences : CMLS, 2012):

Legend:
[1] = biological target: T1, NSBP-1 (D2096.8; nematode sterol-binding protein 1) (Caenorhabditis elegans, UniProt Q19007); test: competition with […] [3H]cholesterol on GST fusion protein
T1 sequence (Q19007 1-316): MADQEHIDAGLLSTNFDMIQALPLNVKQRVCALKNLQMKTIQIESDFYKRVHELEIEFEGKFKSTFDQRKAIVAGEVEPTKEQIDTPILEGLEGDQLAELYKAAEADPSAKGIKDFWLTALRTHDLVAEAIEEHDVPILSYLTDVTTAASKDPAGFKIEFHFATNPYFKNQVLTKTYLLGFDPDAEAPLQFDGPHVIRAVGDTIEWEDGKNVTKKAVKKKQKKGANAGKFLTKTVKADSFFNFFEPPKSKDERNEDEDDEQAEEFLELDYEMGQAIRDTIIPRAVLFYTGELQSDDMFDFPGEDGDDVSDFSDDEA

[2] = biological target: T1, NSBP-1 (D2096.8; nematode sterol-binding protein 1)

Row | IC50 [1] | Kd [2] | SMILES
1 | ~630 nM | – | C[C@H](CCCC(C)(C)O)[C@H]1CC[C@H]2[C@@H]3CC=C4C[C@@H](O)CC[C@]4(C)[C@H]3CC[C@]12C [25-hydroxycholesterol]
2 | 40 ± 5.6 nM | 87.5 ± 27.7 nM | CC(C)CCC[C@@H](C)[C@H]1CC[C@H]2[C@@H]3CC=C4C[C@@H](O)CC[C@]4(C)[C@H]3CC[C@]12C [cholesterol]
